Source: patent EP1118612A1, “Piperazine derivatives possesing nootropic activity” (Universita Degli Studi di Firenze, priority 2000, dated 2001)

Test system: mice
Assay: Passive-Avoidance test (modified step-through, fall into cold water bath), amnesia induced by scopolamine, baclofen, mecamylamine or clonidine
Format: in vivo, mouse
Details: for 2nd Day (latency time for entering the dark compartment, retention test after 24 h): max latency 120 s
Experimental: A slightly modified step-through method described by Jarvik and [Psycol. Rep. […] The apparatus consists of a two-compartment acrylic box with a lighted compartment connected to the darkened one by a guillotine door. In the original method, mice received a punishing electrical shock as soon as they entered the dark compartment, while in our modified method, after entry into the dark compartment, mice receive a non-painful punishment consisting of a fall (from 40 cm ) into a cold water bath (10°C) . For this purpose the dark chamber was constructed with a pitfall floor. The latency times for entering the dark compartment were measured in the training test (first day) and after 24 h in the retention test (second day). […] All investigated drugs were injected 20 min before the training session, while amnesic drugs were injected immediately after termination of the training session. […] The memory degree of received punishment (fall into cold water) was expressed as the increase in seconds between training and retention latencies (see Table 5).

[1] = 0.01 mg kg^-1, + Scopolamine 1.5 mg kg^-1 i.p.
[2] = 0.01 mg kg^-1 injected 20 min before training, + Scopolamine 1.5 mg kg^-1 i.p. after training
[3] = 0.1 mg kg^-1 injected 20 min before training, + Baclofen 2 mg kg^-1 i.p. after training
[4] = 0.1 mg kg^-1 injected 20 min before training, + Clonidine 0.125 mg kg^-1 i.p. after training
[5] = 1 mg kg^-1 injected 20 min before training, + Mecamilamine 20 mg kg^-1 i.p. after training
[6] = 0.1 mg kg^-1, + Scopolamine 1.5 mg kg^-1 i.p.
[7] = 0.1 mg kg^-1 injected 20 min before training, + Scopolamine 1.5 mg kg^-1 i.p. after training
[8] = 0.01 mg kg^-1 injected 20 min before training, + Baclofen 2 mg kg^-1 i.p. after training
[9] = 10 mg kg^-1 injected 20 min before training, + Mecamilamine 20 mg kg^-1 i.p. after training
[10] = 1.0 mg kg^-1 injected 20 min before training, + Baclofen 2 mg kg^-1 i.p. after training
[11] = 1.0 mg kg^-1 injected 20 min before training, + Clonidine 0.125 mg kg^-1 i.p. after training
[12] = 10 mg kg^-1 injected 20 min before training, + Scopolamine 1.5 mg kg^-1 i.p. after training
[13] = 20 mg kg^-1 injected 20 min before training, + Mecamilamine 20 mg kg^-1 i.p. after training
[14] = 0.001 mg kg^-1 injected 20 min before training, + Scopolamine 1.5 mg kg^-1 i.p. after training
[15] = 30 mg kg^-1 injected 20 min before training, + Baclofen 2 mg kg^-1 i.p. after training
[16] = 30 mg kg^-1 injected 20 min before training, + Scopolamine 1.5 mg kg^-1 i.p. after training

CC(=O)N1CCN(S(=O)(=O)c2ccc(F)cc2)CC1 [Compound 6, 4-Acetyl-1-(4-fluorobenzensolfonyl)piperazine]
Δ (increase in seconds between training and retention latencies) [1]: 79.2 s | 1st Day (latency time for entering the dark compartment, training test) [2]: 19.8 ± 4.1 s | 2nd Day (latency time for entering the dark compartment, retention test after 24 h) [2]: 99.0 ± 18.3 s | Δ (increase in seconds between training and retention latencies) (0.1 mg kg^-1, + Baclofen 2 mg kg^-1 i.p.): 80.4 s | Δ (increase in seconds between training and retention latencies) (0.1 mg kg^-1, + Clonidine 0.125 mg kg^-1 i.p.): 77.4 s | 1st Day (latency time for entering the dark compartment, training test) [3]: 11.7 ± 4.1 s | 2nd Day (latency time for entering the dark compartment, retention test after 24 h) [3]: 92.1 ± 7.9 s | 1st Day (latency time for entering the dark compartment, training test) [4]: 14.7 ± 3.7 s | 2nd Day (latency time for entering the dark compartment, retention test after 24 h) [4]: 92.4 ± 8.1 s | Δ (increase in seconds between training and retention latencies) (1 mg kg^-1, + Mecamilamine 20 mg kg^-1 i.p.): 91.6 s | 1st Day (latency time for entering the dark compartment, training test) [5]: 18.1 ± 3.8 s | 2nd Day (latency time for entering the dark compartment, retention test after 24 h) [5]: 109.7 ± 13.6 s

C[C@H]1C[C@@H]2CN(C(=O)c3ccc(F)cc3)CCN2C1=O (racemic) [Compound 3a, Exo (±) 8-methyl-4-(4-fluorobenzoyl)-1,4-diazabicyclo[4.3.0]nonan-9-one]
Δ (increase in seconds between training and retention latencies) [6]: 85.6 s | 1st Day (latency time for entering the dark compartment, training test) [7]: 21.8 ± 4.8 s | 2nd Day (latency time for entering the dark compartment, retention test after 24 h) [7]: 107.4 ± 10.7 s

CCC(=O)N1CCN(S(=O)(=O)c2ccc(F)cc2)CC1 [Compound 8, 4-Propionyl-1-(4-fluorobenzensolfonyl)piperazine]
Δ (increase in seconds between training and retention latencies) (0.01 mg kg^-1, + Baclofen 2 mg kg^-1 i.p.): 86.8 s | Δ (increase in seconds between training and retention latencies) [1]: 67.9 s | 1st Day (latency time for entering the dark compartment, training test) [8]: 16.3 ± 3.3 s | 2nd Day (latency time for entering the dark compartment, retention test after 24 h) [8]: 103.3 ± 13.9 s | 1st Day (latency time for entering the dark compartment, training test) [2]: 15.9 ± 3.2 s | 2nd Day (latency time for entering the dark compartment, retention test after 24 h) [2]: 83.8 ± 9.2 s | Δ (increase in seconds between training and retention latencies) (10 mg kg^-1, + Mecamilamine 20 mg kg^-1 i.p.): 90.2 s | 1st Day (latency time for entering the dark compartment, training test) [9]: 16.5 ± 2.7 s | 2nd Day (latency time for entering the dark compartment, retention test after 24 h) [9]: 106.7 ± 10.2 s

O=C(c1ccc(F)cc1)N1CCN2C(=O)CCC2C1 (stereo not shown) [Compound 1, 4-(4-fluorobenzoyl)-1,4-diazabicyclo[4.3.0]nonan-9-one]
Δ (increase in seconds between training and retention latencies) [6]: 82.2 s | 1st Day (latency time for entering the dark compartment, training test) [7]: 18.1 ± 3.9 s | 2nd Day (latency time for entering the dark compartment, retention test after 24 h) [7]: 100.3 ± 10.4 s

CC(=O)N1CCN(C(=O)c2ccc(F)cc2)CC1 [Compound 5, 4-Acetyl-1-(4-fluorobenzoyl)piperazine]
Δ (increase in seconds between training and retention latencies) (1.0 mg kg^-1, + Baclofen 2 mg kg^-1 i.p.): 93.2 s | Δ (increase in seconds between training and retention latencies) (1.0 mg kg^-1, + Clonidine 0.125 mg kg^-1 i.p.): 88.1 s | 1st Day (latency time for entering the dark compartment, training test) [10]: 11.4 ± 5.2 s | 2nd Day (latency time for entering the dark compartment, retention test after 24 h) [10]: 104.6 ± 10.3 s | 1st Day (latency time for entering the dark compartment, training test) [11]: 8.0 ± 4.1 s | 2nd Day (latency time for entering the dark compartment, retention test after 24 h) [11]: 96.1 ± 10.7 s | Δ (increase in seconds between training and retention latencies) (10 mg kg^-1, + Scopolamine 1.5 mg kg^-1 i.p.): 72.6 s | 1st Day (latency time for entering the dark compartment, training test) [12]: 17.5 ± 6.1 s | 2nd Day (latency time for entering the dark compartment, retention test after 24 h) [12]: 91.1 ± 9.5 s | Δ (increase in seconds between training and retention latencies) (20 mg kg^-1, + Mecamilamine 20 mg kg^-1 i.p.): 91.7 s | 1st Day (latency time for entering the dark compartment, training test) [13]: 17.0 ± 2.7 s | 2nd Day (latency time for entering the dark compartment, retention test after 24 h) [13]: 108.7 ± 3.5 s

C[C@H]1C[C@@H]2CN(S(=O)(=O)c3ccc(F)cc3)CCN2C1=O [Compound 4a, Exo 8-methyl-4-(4-fluorobenzensolfonyl)-1,4-diazabicyclo[4.3.0]nonan-9-one]
Δ (increase in seconds between training and retention latencies) [6]: 78.0 s | 1st Day (latency time for entering the dark compartment, training test) [7]: 16.9 ± 6.1 s | 2nd Day (latency time for entering the dark compartment, retention test after 24 h) [7]: 94.9 ± 11.2 s

O=C1CCC2CN(S(=O)(=O)c3ccc(F)cc3)CCN12 (racemic) [Compound 2, 4-(4-fluorobenzensolfonyl)-1,4-diazabicyclo[4.3.0]nonan-9-one]
Δ (increase in seconds between training and retention latencies) (0.001 mg kg^-1, + Scopolamine 1.5 mg kg^-1 i.p.): 93.8 s | 1st Day (latency time for entering the dark compartment, training test) [14]: 19.7 ± 5.8 s | 2nd Day (latency time for entering the dark compartment, retention test after 24 h) [14]: 104.4 ± 10.6 s

CCC(=O)N1CCN(C(=O)c2ccc(F)cc2)CC1 [Compound 7, 4-Propionyl-1-(4-fluorobenzoyl)piperazine]
Δ (increase in seconds between training and retention latencies) (30 mg kg^-1, + Baclofen 2 mg kg^-1 i.p.): 86.8 s | Δ (increase in seconds between training and retention latencies) (30 mg kg^-1, + Scopolamine 1.5 mg kg^-1 i.p.): 80.5 s | 1st Day (latency time for entering the dark compartment, training test) [15]: 20.6 ± 4.9 s | 2nd Day (latency time for entering the dark compartment, retention test after 24 h) [15]: 107.1 ± 11.4 s | 1st Day (latency time for entering the dark compartment, training test) [16]: 11.9 ± 5.6 s | 2nd Day (latency time for entering the dark compartment, retention test after 24 h) [16]: 92.4 ± 10.1 s

C[C@@H]1C[C@@H]2CN(C(=O)c3ccc(F)cc3)CCN2C1=O (racemic) [Compound 3b, Endo (±) 8-methyl-4-(4-fluorobenzoyl)-1,4-diazabicyclo[4.3.0]nonan-9-one]
Δ (increase in seconds between training and retention latencies) [6]: 80.0 s | 1st Day (latency time for entering the dark compartment, training test) [7]: 12.5 ± 5.9 s | 2nd Day (latency time for entering the dark compartment, retention test after 24 h) [7]: 104.0 ± 8.6 s

C[C@@H]1C[C@@H]2CN(S(=O)(=O)c3ccc(F)cc3)CCN2C1=O [Compound 4b, Endo 8-methyl-4-(4-fluorobenzensolfonyl)-1,4-diazabicyclo[4.3.0]nonan-9-one]
Δ (increase in seconds between training and retention latencies) [6]: 96.5 s | 1st Day (latency time for entering the dark compartment, training test) [7]: 21.9 ± 4.7 s | 2nd Day (latency time for entering the dark compartment, retention test after 24 h) [7]: 118.4 ± 10.2 s

NC(=O)CN1CCCC1=O [Piracetam, piracetam, reference compound]
1st Day (latency time for entering the dark compartment, training test) [15]: 20.9 ± 4.5 s | 1st Day (latency time for entering the dark compartment, training test) (30 mg kg^-1 injected 20 min before training, + Clonidine 0.125 mg kg^-1 i.p. after training): 11.6 ± 3.7 s | 1st Day (latency time for entering the dark compartment, training test) (30 mg kg^-1 injected 20 min before training, + Mecamilamine 20 mg kg^-1 i.p. after training): 16.7 ± 4.8 s | 1st Day (latency time for entering the dark compartment, training test) [16]: 17.6 ± 3.6 s
